Source: patent publication US20230024096A1, “BIFUNCTIONAL COMPOUNDS FOR THE TREATMENT OF CANCER” (Hoffmann-La Roche Inc., priority 2019, published 2023)

Molecular target: T1, SMARCA2 (Homo sapiens, UniProt P51531)
T1 construct: endogenous in cells; host or cells: HT1080 (CRISPR HiBiT knock-in clone, generated in house)
Assay: SMARCA2 HiBiT degradation assay (cellular)
Assay type: cell-based
Conditions: table head names A549; for DC50: 6 h incubation, HiBiT-tagged SMARCA2, luminescence read-out, read-out: HiBit A549 SMARCA2 IP (nM) 6 h; for Emax: A549, 6 h incubation, Emax = amount of residual protein remaining in the cell following compound treatment

T1 sequence (P51531 whole entry): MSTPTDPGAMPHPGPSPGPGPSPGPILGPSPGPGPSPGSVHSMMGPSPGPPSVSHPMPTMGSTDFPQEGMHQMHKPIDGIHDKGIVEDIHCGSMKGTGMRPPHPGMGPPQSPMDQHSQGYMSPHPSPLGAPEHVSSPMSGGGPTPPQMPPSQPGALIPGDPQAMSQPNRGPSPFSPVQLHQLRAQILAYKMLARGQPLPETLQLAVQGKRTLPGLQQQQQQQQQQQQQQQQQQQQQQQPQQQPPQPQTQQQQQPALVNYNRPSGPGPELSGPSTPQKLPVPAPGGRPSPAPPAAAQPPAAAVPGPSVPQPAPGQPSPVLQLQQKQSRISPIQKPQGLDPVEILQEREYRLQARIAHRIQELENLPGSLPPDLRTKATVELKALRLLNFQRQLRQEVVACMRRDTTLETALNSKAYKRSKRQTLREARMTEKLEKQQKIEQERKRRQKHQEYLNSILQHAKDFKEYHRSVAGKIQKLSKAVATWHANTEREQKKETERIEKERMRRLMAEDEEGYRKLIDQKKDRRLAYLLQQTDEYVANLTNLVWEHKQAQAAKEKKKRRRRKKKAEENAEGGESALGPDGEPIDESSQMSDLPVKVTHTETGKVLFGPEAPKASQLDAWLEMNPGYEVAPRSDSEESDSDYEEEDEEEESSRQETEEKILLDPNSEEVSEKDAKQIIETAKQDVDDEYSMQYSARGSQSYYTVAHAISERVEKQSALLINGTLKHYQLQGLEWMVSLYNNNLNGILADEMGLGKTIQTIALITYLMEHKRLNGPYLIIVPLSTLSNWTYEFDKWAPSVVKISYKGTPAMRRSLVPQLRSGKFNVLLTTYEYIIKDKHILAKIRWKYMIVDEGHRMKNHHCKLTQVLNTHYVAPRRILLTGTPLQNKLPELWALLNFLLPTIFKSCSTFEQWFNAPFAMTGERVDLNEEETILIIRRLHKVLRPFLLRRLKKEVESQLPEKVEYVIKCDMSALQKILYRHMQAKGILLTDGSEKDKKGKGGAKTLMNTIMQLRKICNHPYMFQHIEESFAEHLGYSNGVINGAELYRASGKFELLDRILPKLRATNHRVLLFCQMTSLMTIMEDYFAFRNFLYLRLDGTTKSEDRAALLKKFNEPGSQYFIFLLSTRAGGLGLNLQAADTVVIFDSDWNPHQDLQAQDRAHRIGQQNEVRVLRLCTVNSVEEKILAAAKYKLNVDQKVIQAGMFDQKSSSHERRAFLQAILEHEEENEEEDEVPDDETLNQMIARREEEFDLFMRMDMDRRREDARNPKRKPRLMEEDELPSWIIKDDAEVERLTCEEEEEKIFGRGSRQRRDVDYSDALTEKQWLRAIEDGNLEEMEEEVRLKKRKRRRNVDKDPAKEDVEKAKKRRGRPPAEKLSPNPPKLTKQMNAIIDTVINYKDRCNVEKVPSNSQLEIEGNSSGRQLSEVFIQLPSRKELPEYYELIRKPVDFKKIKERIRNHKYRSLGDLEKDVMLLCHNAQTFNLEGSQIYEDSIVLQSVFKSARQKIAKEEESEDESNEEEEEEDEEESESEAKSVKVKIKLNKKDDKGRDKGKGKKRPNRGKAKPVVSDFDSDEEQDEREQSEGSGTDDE

Structure (SMILES) | DC50 [nM] | Emax [%]
Nc1nnc(-c2ccccc2O)cc1N1CC2CCC(C1)N2c1cccc(OCCN2CCN(CC3CCN(c4ccc5c(c4)C(=O)N(C4CCC(=O)NC4=O)C5=O)CC3)CC2)c1 (racemic) [Example 38, rac-5-[4-[[4-[2-[3-[3-[3-amino-6-(2-hydroxyphenyl)pyridazin-4-yl]-3,8-diazabicyclo[3.2.1]octan-8-yl]phenoxy]ethyl]piperazin-1-yl]methyl]-1-piperidyl]-2-(2,6-dioxo-3-piperidyl)isoindoline-1,3-dione] | 20 | 29
Nc1nnc(-c2cc(F)ccc2O)cc1N1CC2CCC(C1)N2c1cccc(CN2CCN(C(=O)C3CCN(c4ccc5c(c4)C(=O)N(C4CCC(=O)NC4=O)C5=O)CC3)CC2)c1 (stereo not drawn) [Example 158, 5-[4-[4-[[3-[3-[3-amino-6-(5-fluoro-2-hydroxy-phenyl)pyridazin-4-yl]-3,8-diazabicyclo[3.2.1]octan-8-yl]phenyl]methyl]piperazine-1-carbonyl]-1-piperidyl]-2-(2,6-dioxo-3-piperidyl)isoindoline-1,3-dione] | – | 5
Nc1nnc(-c2ccccc2O)cc1N1CC2CCC(C1)N2c1cccc(OCCN2CCN(C(=O)CCCCCCNc3cccc4c3C(=O)N(C3CCC(=O)NC3=O)C4=O)CC2)c1 (stereo not drawn) [Example 1, 4-[[7-[4-[2-[3-[3-[3-amino-6-(2-hydroxyphenyl)pyridazin-4-yl]-3,8-diazabicyclo[3.2.1]octan-8-yl]phenoxy]ethyl]piperazin-1-yl]-7-oxo-heptyl]amino]-2-(2,6-dioxo-3-piperidyl)isoindoline-1,3-dione] | 68 | 55
Nc1nnc(-c2ccccc2O)cc1N1CC2CCC(C1)N2c1cccc(OCCN2CCN(C(=O)C3CCN(c4cccc5c4C(=O)N(C4CCC(=O)NC4=O)C5=O)CC3)CC2)c1 (racemic) [Example 13, rac-4-[4-[4-[2-[3-[3-[3-amino-6-(2-hydroxyphenyl)pyridazin-4-yl]-3,8-diazabicyclo[3.2.1]octan-8-yl]phenoxy]ethyl]piperazine-1-carbonyl]-1-piperidyl]-2-(2,6-dioxo-3-piperidyl)isoindoline-1,3-dione] | 32 | 64
Nc1nnc(-c2ccccc2O)cc1N1CC2CCC(C1)N2c1cccc(CN2CCC(C(=O)N3C[C@@H]4CN(c5ccc6c(c5)C(=O)N(C5CCC(=O)NC5=O)C6=O)C[C@@H]4C3)CC2)c1 (relative stereo) [Example 171, rac-2-(2,6-dioxo-3-piperidyl)-5-[rel-(3aR,6aS)-5-[1-[[3-[3-[3-amino-6-(2-hydroxyphenyl)pyridazin-4-yl]-3,8-diazabicyclo[3.2.1]octan-8-yl]phenyl]methyl]piperidine-4-carbonyl]-1,3,3a,4,6,6a-hexahydropyrrolo[3,4-c]pyrrol-2-yl]isoindoline-1,3-dione] | 66 | 40
Nc1nnc(-c2cc(F)ccc2O)cc1N1C2CCC1CN(c1cccc(OCCN3CCN(C(=O)C4CCN(c5ccc6c(c5)C(=O)N(C5CCC(=O)NC5=O)C6=O)CC4)CC3)c1)C2 (stereo not drawn) [Example 160, 5-[4-[4-[2-[3-[8-[3-amino-6-(5-fluoro-2-hydroxy-phenyl)pyridazin-4-yl]-3,8-diazabicyclo[3.2.1]octan-3-yl]phenoxy]ethyl]piperazine-1-carbonyl]-1-piperidyl]-2-(2,6-dioxo-3-piperidyl)isoindoline-1,3-dione] | 144 | 74
Nc1nnc(-c2ccccc2O)cc1N1CC2CCC(C1)N2c1cccc(OCCN2CCN(C(=O)N3CCC(Oc4cccc5c4C(=O)N(C4CCC(=O)NC4=O)C5=O)CC3)CC2)c1 (racemic) [Example 41, rac-4-[[1-[4-[2-[3-[3-[3-amino-6-(2-hydroxyphenyl)pyridazin-4-yl]-3,8-diazabicyclo[3.2.1]octan-8-yl]phenoxy]ethyl]piperazine-1-carbonyl]-4-piperidyl]oxy]-2-(2,6-dioxo-3-piperidyl)isoindoline-1,3-dione] | 46 | 48
Nc1nnc(-c2ccccc2O)cc1N1CC2CCC(C1)N2c1cccc(CN2CCC(C(=O)NC3CCN(c4ccc5c(c4)C(=O)N(C4CCC(=O)NC4=O)C5=O)CC3)CC2)c1 (racemic) [Example 106, rac-1-[[3-[3-[3-amino-6-(2-hydroxyphenyl)pyridazin-4-yl]-3,8-diazabicyclo[3.2.1]octan-8-yl]phenyl]methyl]-N-[1-[2-(2,6-dioxo-3-piperidyl)-1,3-dioxo-isoindolin-5-yl]-4-piperidyl]piperidine-4-carboxamide] | 23 | 26

The remaining lines, values ahead:

DC50 [nM] | Emax [%] | Structure (SMILES)
18 | 37 | Nc1nnc(-c2ccccc2O)cc1N1CCN(c2cccc(CN3CCN(C(=O)CCC4CCN(c5ccc6c(c5)C(=O)N(C5CCC(=O)NC5=O)C6=O)CC4)CC3)c2)C2(CC2)C1 (stereo not drawn) [Example 128, 5-(4-(3-(4-(3-(7-(3-amino-6-(2-hydroxyphenyl)pyridazin-4-yl)-4,7-diazaspiro[2.5]octan-4-yl)benzyl)piperazin-1-yl)-3-oxopropyl)piperidin-1-yl)-2-(2,6-dioxopiperidin-3-yl)isoindoline-1,3-dione]
107 | 62 | CC(Oc1cccc2c1C(=O)N(C1CCC(=O)NC1=O)C2=O)c1cn(C2CN(C(=O)CCCCN3CCN(c4ccc(N5CCC[C@H](Oc6cc(-c7ccccc7O)nnc6N)C5)cc4)CC3)C2)nn1 (mixture of isomers) [Example 199, 2-(2,6-dioxo-3-piperidyl)-4-[1-[1-[1-[5-[4-[4-[rac-(3S)-3-[3-amino-6-(2-hydroxyphenyl)pyridazin-4-yl]oxy-1-piperidyl]phenyl]piperazin-1-yl]pentanoyl]azetidin-3-yl]triazol-4-yl]ethoxy]isoindoline-1,3-dione]
158 | 50 | Nc1nnc(-c2ccccc2O)cc1OC1CCCN(c2ccc(N3CCN(C(=O)CCCCCCCCCCn4cc(CNc5cccc6c5C(=O)N(C5CCC(=O)NC5=O)C6=O)nn4)CC3)cc2)C1 (stereo not drawn) [Example 29, 4-[[1-[11-[4-[4-[3-[3-amino-6-(2-hydroxyphenyl)pyridazin-4-yl]oxy-1-piperidyl]phenyl]piperazin-1-yl]-11-oxo-undecyl]triazol-4-yl]methylamino]-2-(2,6-dioxo-3-piperidyl)isoindoline-1,3-dione]
42 | 63 | Nc1nnc(-c2ccccc2O)cc1N1CCN(c2ccccc2)C(C(=O)NC2CCN(C(=O)CCC3CCN(c4ccc5c(c4)C(=O)N(C4CCC(=O)NC4=O)C5=O)CC3)CC2)C1 (stereo not drawn) [Example 54, 4-[3-amino-6-(2-hydroxyphenyl)pyridazin-4-yl]-N-[1-[3-[1-[2-(2,6-dioxo-3-piperidyl)-1,3-dioxo-isoindolin-5-yl]-4-piperidyl]propanoyl]-4-piperidyl]-1-phenyl-piperazine-2-carboxamide]
81 | 48 | Nc1nnc(-c2ccccc2O)cc1N1CCN(c2ccccc2)C(C(=O)NC2CCN(C(=O)C3CCN(c4ccc5c(c4)C(=O)N(C4CCC(=O)NC4=O)C5=O)CC3)CC2)C1 (stereo not drawn) [Example 87, 4-(3-amino-6-(2-hydroxyphenyl)pyridazin-4-yl)-N-(1-(1-(2-(2,6-dioxopiperidin-3-yl)-1,3-dioxoisoindolin-5-yl)piperidine-4-carbonyl)piperidin-4-yl)-1-phenylpiperazine-2-carboxamide]
– | 31 | Nc1nnc(-c2ccccc2O)cc1N1CCC(C(=O)N2CCC(C(=O)N3CCN(c4ccc(C5CCC(=O)NC5=O)cc4)CC3)CC2)(c2ccccc2)CC1 (stereo not drawn) [Example 176, 3-(4-(4-(1-(1-(3-amino-6-(2-hydroxyphenyl)pyridazin-4-yl)-4-phenylpiperidine-4-carbonyl)piperidine-4-carbonyl)piperazin-1-yl)phenyl)piperidine-2,6-dione]
187 | 46 | Nc1nnc(-c2ccccc2O)cc1N1CCC(C(=O)N2CCC(C(=O)N3CCN(c4ccc5c(c4)C(=O)N(C4CCC(=O)NC4=O)C5=O)CC3)CC2)(c2ccccc2)CC1 (stereo not drawn) [Example 178, 5-(4-(1-(1-(3-amino-6-(2-hydroxyphenyl)pyridazin-4-yl)-4-phenylpiperidine-4-carbonyl)piperidine-4-carbonyl)piperazin-1-yl)-2-(2,6-dioxopiperidin-3-yl)isoindoline-1,3-dione]
254 | 65 | Nc1nnc(-c2ccccc2O)cc1OC1CCCN(c2ccc(N3CCN(C(=O)CCCCCCCCCCCCCCn4cc(CNc5cccc6c5C(=O)N(C5CCC(=O)NC5=O)C6=O)nn4)CC3)cc2)C1 (stereo not drawn) [Example 8, 4-[[1-[15-[4-[4-[3-[3-amino-6-(2-hydroxyphenyl)pyridazin-4-yl]oxy-1-piperidyl]phenyl]piperazin-1-yl]-15-oxo-pentadecyl]triazol-4-yl]methylamino]-2-(2,6-dioxo-3-piperidyl)isoindoline-1,3-dione]
149 | 44 | Nc1nnc(-c2ccccc2O)cc1OC1CCCN(c2ccc(N3CCN(C(=O)CCCCCCCCCCCn4cc(CNc5cccc6c5C(=O)N(C5CCC(=O)NC5=O)C6=O)nn4)CC3)cc2)C1 (stereo not drawn) [Example 4, 4-[[1-[12-[4-[4-[3-[3-amino-6-(2-hydroxyphenyl)pyridazin-4-yl]oxy-1-piperidyl]phenyl]piperazin-1-yl]-12-oxo-dodecyl]triazol-4-yl]methylamino]-2-(2,6-dioxo-3-piperidyl)isoindoline-1,3-dione]
241 | 62 | Nc1nnc(-c2ccccc2O)cc1N1CCC(NC(=O)CC2CCN(C(=O)CCCN3CCC(c4ccc(NC5CCC(=O)NC5=O)cc4)CC3)CC2)(c2ccccc2)CC1 (stereo not drawn) [Example 185, N-[1-[3-amino-6-(2-hydroxyphenyl)pyridazin-4-yl]-4-phenyl-4-piperidyl]-2-[1-[4-[4-[4-[(2,6-dioxo-3-piperidyl)amino]phenyl]-1-piperidyl]butanoyl]-4-piperidyl]acetamide]
55 | 30 | CC(Nc1cccc2c1C(=O)N(C1CCC(=O)NC1=O)C2=O)c1cn(CCCCCCCCCN2CCN(c3ccc(N4CCCC(Oc5cc(-c6ccccc6O)nnc5N)C4)cc3)CC2)nn1 (stereo not drawn) [Example 89, 4-[1-[1-[9-[4-[4-[3-[3-amino-6-(2-hydroxyphenyl)pyridazin-4-yl]oxy-1-piperidyl]phenyl]piperazin-1-yl]nonyl]triazol-4-yl]ethylamino]-2-(2,6-dioxo-3-piperidyl)isoindoline-1,3-dione]
